Measured values as given in ChEMBL document CHEMBL4364241, “Developments in the anticancer activity of structurally modified curcumin: An up-to-date review” (Eur J Med Chem, 2019).

Key:
[1] = Cytotoxicity against mitoxantrone resistant […] cells expressing BCRP after 15 mins by fluorescence assay; assay type: functional, cell-based; details: Canis lupus familiaris, MDCK2, 0.25 h
[2] = tested on: SK-OV-3; assay: Cytotoxicity against human SKOV3 Cells after 48 hrs by Cell Titer Blue assay; assay type: functional, cell-based; details: SK-OV-3, 48 h
[3] = tested on: MGC-803; assay: Antiproliferative activity against human MGC803 cells after 24 hrs by MTT assay; assay type: functional, cell-based; details: MGC-803, 24 h
[4] = tested on: BGC-823; assay: Antiproliferative activity against human BGC823 cells after 24 hrs by MTT assay; assay type: functional, cell-based; details: BGC-823, 24 h
[5] = tested on: CT26; assay: Cytotoxicity against mouse CT26 cells; assay type: functional, cell-based
[6] = tested on: SW-620; assay: Cytotoxicity against human SW620 Cells; assay type: functional, cell-based
[7] = tested on: SGC-7901; assay: Antiproliferative activity against human SGC7901 cells after 24 hrs by MTT assay; assay type: functional, cell-based; details: SGC-7901, 24 h
[8] = tested on: DU-145; assay: Anticancer activity against human DU145 cells; assay type: functional, cell-based
[9] = tested on: HCT-116; assay: Cytotoxicity against human HCT116 Cells; assay type: functional, cell-based
[10] = tested on: PC-3; assay: Anticancer activity against human PC3 cells; assay type: functional, cell-based
[11] = tested on: L02; assay: Cytotoxicity against human HL-7702 cells; assay type: functional, cell-based
[12] = tested on: HEp-2; assay: Cytotoxicity against human Hep2 Cells; assay type: functional, cell-based
[13] = tested on: A549; assay: Cytotoxicity against human A549 Cells by MTT assay; assay type: functional, cell-based
[14] = tested on: HT-29; assay: Cytotoxicity against human HT-29 cells by MTT assay; assay type: functional, cell-based
[15] = tested on: MIA PaCa-2; assay: Cytotoxicity against human MIAPaCa2 cells by MTT assay; assay type: functional, cell-based
[16] = tested on: PANC-1; assay: Cytotoxicity against human PANC1 cells by MTT assay; assay type: functional, cell-based
[17] = tested on: PC-3; assay: Cytotoxicity against human PC3 cells by MTT assay; assay type: functional, cell-based
[18] = tested on: MCF7; assay: Cytotoxicity against human MCF7 cells by MTT assay; assay type: functional, cell-based
[19] = tested on: NCI-H460; assay: Cytotoxicity against human H460 cells by MTT assay; assay type: functional, cell-based
[20] = Cytotoxicity against human CCD-1059SK Cells after 48 hrs by MTS assay; assay type: functional
[21] = tested on: MCF7; assay: Cytotoxicity against human MCF7 Cells after 48 hrs by MTS assay; assay type: functional, cell-based; details: MCF7, 48 h
[22] = tested on: AGS; assay: Cytotoxicity against human AGS Cells by MTT assay; assay type: functional, cell-based
[23] = tested on: BXPC-3; assay: Cytotoxicity against human BxPC3 cells; assay type: functional, cell-based
[24] = tested on: PC-3; assay: Cytotoxicity against human PC3 cells; assay type: functional, cell-based
[25] = tested on: HT-29; assay: Cytotoxicity against human HT-29 Cells; assay type: functional, cell-based
[26] = tested on: RWPE-1; assay: Cytotoxicity against human RWPE1 cells; assay type: functional, cell-based
[27] = tested on: NCI-H1299; assay: Cytotoxicity against human H1299 cells; assay type: functional, cell-based
[28] = tested on: MCF7; assay: Induction of apoptosis in human MCF7 cells; assay type: functional, cell-based
[29] = tested on: K562; assay: Cytotoxicity against human K562 Cells after 24 to 48 hrs by MTT assay; assay type: functional, cell-based
[30] = tested on: SW480; assay: Cytotoxicity against human SW480 Cells after 24 to 48 hrs by MTT assay; assay type: functional, cell-based
[31] = tested on: A549; assay: Cytotoxicity against human A549 Cells after 24 to 48 hrs by MTT assay; assay type: functional, cell-based
[32] = tested on: EA.hy 926; assay: Cytotoxicity against human EAhy926 Cells after 72 hrs by MTT assay; assay type: functional, cell-based; details: EA.hy 926, 72 h
[33] = tested on: HepG2; assay: Cytotoxicity against human HepG2 Cells after 72 hrs by MTT assay; assay type: functional, cell-based; details: HepG2, 72 h
[34] = tested on: Caco-2; assay: Cytotoxicity against human Caco2 Cells after 72 hrs by MTT assay; assay type: functional, cell-based; details: Caco-2, 72 h
[35] = tested on: CHO-K1; assay: Cytotoxicity against […] Cells after 72 hrs by MTT assay; assay type: functional, cell-based; details: Cricetulus griseus, CHO-K1, 72 h
[36] = tested on: HT-29; assay: Cytotoxicity against human HT-29 Cells after 72 hrs by MTT assay; assay type: functional, cell-based; details: HT-29, 72 h
[37] = tested on: U373 MG; assay: Cytotoxicity against human U373MG Cells 48 hrs by MTS assay; assay type: functional, cell-based, U-373MG ATCC
[38] = Cytotoxicity against human GBM1 Cells 48 hrs by MTS assay; assay type: functional; details: GBM1, 48 h
[39] = Cytotoxicity against human GBM3 Cells 48 hrs by MTS assay; assay type: functional; details: GBM3, 48 h
[40] = tested on: U-251; assay: Cytotoxicity against human U251MG cells after 48 hrs by MTS assay; assay type: functional, cell-based; details: U-251, 48 h
[41] = tested on: U-87 MG; assay: Cytotoxicity against human U87MG Cells 48 hrs by MTS assay; assay type: functional, cell-based, U-87MG ATCC
[42] = Cytotoxicity against human GBM5 Cells 48 hrs by MTS assay; assay type: functional
[43] = Cytotoxicity against human GBM6 Cells 48 hrs by MTS assay; assay type: functional; details: GBM6, 48 h
[44] = Cytotoxicity against human GBM4 Cells 48 hrs by MTS assay; assay type: functional
[45] = Cytotoxicity against human GBM2 Cells 48 hrs by MTS assay; assay type: functional; details: GBM2, 48 h
[46] = tested on: HL-60; assay: Cytotoxicity against human HL60 cells; assay type: functional, cell-based
[47] = tested on: HSC-3; assay: Cytotoxicity against human HSC3 cells; assay type: functional, cell-based
[48] = tested on: HSC-2; assay: Cytotoxicity against human HSC2 cells; assay type: functional, cell-based
[49] = tested on: HSC-4; assay: Cytotoxicity against human HSC4 cells; assay type: functional, cell-based
[50] = Cytotoxicity against human LX2 Cells after 48 hrs by MTT assay; assay type: functional; details: LX-2, 48 h
[51] = tested on: HepG2; assay: Cytotoxicity against human HepG2 Cells after 48 hrs by MTT assay; assay type: functional, cell-based; details: HepG2, 48 h
[52] = tested on: MCF7; assay: Cytotoxicity against human MCF7 Cells after 48 hrs by MTT assay; assay type: functional, cell-based; details: MCF7, 48 h
[53] = tested on: NIH3T3; assay: Cytotoxicity against mouse 3T3 Cells after 48 hrs by MTT assay; assay type: functional, cell-based; details: NIH3T3, 48 h
[54] = tested on: SGC-7901; assay: Cytotoxicity against human SGC7901 cells; assay type: functional, cell-based
[55] = tested on: MGC-803; assay: Cytotoxicity against human MGC803 cells; assay type: functional, cell-based
[56] = tested on: BGC-823; assay: Cytotoxicity against human BGC823 cells; assay type: functional, cell-based
[57] = tested on: GES1; assay: Cytotoxicity against human GES-1 cells; assay type: functional, cell-based
[58] = tested on: HeLa; assay: Anticancer activity against human HeLa cells; assay type: functional, cell-based

SMILES: COc1cc(/C=C2\CNC/C(=C\c3ccc(O)c(OC)c3)C2=O)ccc1O
- IC50 [1]: 4300 nM

SMILES: COc1ccc(/C=C/C(=O)/C=C(O)/C=C/c2ccc(OC)c(OC)c2)cc1OC
- IC50 [2]: 3.51 µM

SMILES: COc1ccc(/C=C/C(=O)/C=C(O)/C=C/c2ccc(OC)c(O)c2)cc1O
- IC50 [2]: 5.58 µM

SMILES: COc1ccc(OC)c(/C=C2\CNC/C(=C\c3cc(OC)ccc3OC)C2=O)c1
- IC50 [1]: 1200 nM

SMILES: COc1cc(/C=C/C(=O)/C=C/c2ccccc2[N+](=O)[O-])ccc1O
- IC50 [3]: 2700 nM
- IC50 [4]: 3.3 µM
- IC50 [5]: 1600 nM
- IC50 [6]: 2800 nM
- IC50 [7]: 4.3 µM
- IC50 [8]: 3.7 µM
- IC50 [9]: 2200 nM
- IC50 [10]: 3.5 µM

SMILES: CCN1C/C(=C\c2cc(OC)c(OC)c(OC)c2)C(=O)/C(=C/c2cc(OC)c(OC)c(OC)c2)C1
- IC50 [11]: 46.8 µM
- IC50 [12]: 16.6 µM

SMILES: CN1CC(Cc2ccc(N(C)C)cc2[N+](=O)[O-])C(=NO)C(Cc2ccc(N(C)C)cc2[N+](=O)[O-])C1 (configuration not stated)
- IC50 [13]: 0.09 µM
- IC50 [14]: 50 nM
- IC50 [15]: 70 nM
- IC50 [16]: 100 nM
- IC50 [17]: 80 nM
- IC50 [18]: 90 nM
- IC50 [19]: 80 nM

SMILES: COc1ccc(/C=N/NC(=O)/C=C/c2ccc(O)c(OC)c2)cc1
- IC50 [20]: 158 µM
- IC50 [21]: 40.5 µM

SMILES: COc1ccc(/C=C/C(=O)/C(CNc2ccc(S(N)(=O)=O)cc2)=C(O)/C=C/c2ccc(OC)cc2)cc1
- IC50 [13]: 6.25 µM
- IC50 [22]: 11.9 µM

SMILES: COc1cc(/C=C2/C(=O)/C(=C/c3cc(OC)c(OC)c(OC)c3)c3ccccc32)cc(OC)c1OC
- IC50 [23]: 990 nM
- IC50 [24]: 640 nM
- IC50 [25]: 980 nM
- IC50 [26]: 9.12 µM
- IC50 [27]: 950 nM

SMILES: COc1cc(/C=C/C(=O)C(=CC2CCN(C(=O)OC(C)(C)C)CC2)C(=O)/C=C/c2ccc(O)c(OC)c2)ccc1O
- IC50 [28]: 1500 nM

SMILES: O=C(/C=C/c1c[nH]c2ccccc12)CC(=O)/C=C/c1c[nH]c2ccccc12
- IC50 [29]: 32 to 34 µM
- IC50 [30]: 7 to 9 µM
- IC50 [31]: 25 to 27 µM

SMILES: O=C(/C=C(O)/C=C/c1c[nH]c2ccccc12)/C=C/c1c[nH]c2ccccc12
- IC50 [32]: 11.7 µM
- IC50 [33]: 10 µM
- IC50 [34]: 3.3 µM
- IC50 [35]: 7.9 µM
- IC50 [36]: 11.5 µM

SMILES: C=CC(=O)NC(c1ccccc1)C(C(=O)/C=C/c1cccc(O)c1)C(=O)/C=C/c1cccc(O)c1 (configuration not stated)
- IC50 [37]: > 5 µM
- IC50 [38]: 870 nM
- IC50 [39]: 1450 nM
- IC50 [40]: 330 nM
- IC50 [41]: 380 nM
- IC50 [42]: 920 nM
- IC50 [43]: 2320 nM
- IC50 [44]: 1260 nM
- IC50 [45]: 1430 nM

SMILES: CN1CCC(Cc2ccc(/C=C/C(=O)/C=C/c3ccc(CN4CCN(C)CC4)c(O)c3)cc2O)CC1
- IC50 [46]: 1800 nM
- IC50 [47]: 3000 nM
- IC50 [48]: 3.9 µM
- IC50 [49]: 3000 nM

SMILES: COc1ccc(/C=C/C(=O)Oc2ccc(/C=C/C(=O)CC(=O)/C=C/c3ccc(OC(=O)/C=C/c4ccc(OC)c(O)c4)c(OC)c3)cc2OC)cc1O
- IC50 [50]: 630 nM
- IC50 [51]: 580 nM
- IC50 [52]: 510 nM
- IC50 [53]: 790 nM

SMILES: COc1ccc(OC)c(/C=C2\CC/C(=C\c3ccc(O)c(OC)c3)C2=O)c1
- IC50 [54]: 3.9 µM
- IC50 [55]: 13.3 µM
- IC50 [56]: 4.7 µM
- IC50 [57]: 27.3 µM

SMILES: O=C(/C=C(O)/C=C/c1ccc(OCC(=O)NCC(=O)O)cc1)/C=C/c1ccc(OCC(=O)NCC(=O)O)cc1
- IC50 [58]: 500 nM

SMILES: COc1cc(/C=C/C(=O)/C=C(O)/C=C/c2ccc(OCC(=O)NCC(=O)O)c(OC)c2)ccc1OCC(=O)NCC(=O)O
- IC50 [58]: 500 nM
